The target in this experiment is enzyme 5α-reductase. Briefly: enzymatic in vitro method described in WO/9413691 (5α-reductase inhibition). The class given is biochemical. The settings on record: for IC50: concentration inhibiting by 50% the enzymatic activity, Finasteride as control product; for inhibiting activity on the enzyme 5α-reductase: verbal assessment, compared with Finasteride. The source says: The three monohydroxylated products obtained by biotransformation of the azasteroid moiety using Penicillium sp. have biological activity on the enzyme 5α-reductase. For this purpose, the enzymatic in vitro method described in WO/9413691, published on June 23, 1994 has been used.

These results are taken from EP0922770B1, “A microbiological process for the transformation of 17beta-carboxy substituted 3-oxo-4-azasteroids and the use of such products as inhibitors of the enzyme 5alpha-reductase” (POLI INDUSTRIA CHIMICA S.p.A., priority 1994, dated 1996).

As a reminder, the IC50 is the midpoint of a concentration-inhibition curve. A low value points to greater potency.

Compound `CC(C)(C)NC(=O)[C@H]1CC[C@H]2[C@@H]3CC[C@H]4NC(=O)C=C[C@]4(C)[C@H]3CC[C@]12C` [Finasteride, reference compound] had an IC50 of 37 nM. With `CC(C)(C)NC(=O)[C@H]1CC[C@H]2[C@@H]3C[C@H](O)C4NC(=O)CC[C@]4(C)[C@H]3CC[C@]12C` (stereo partly drawn) [Product 1, 17β-t-butylcarbamoyl-6a-hydroxy-4-azaandrostan-3-one], inhibition was half-maximal at 195 nM (IC50) and the “inhibiting activity on the enzyme 5α-reductase” value is “poorly active”. On to `CC(C)(C)NC(=O)[C@H]1C[C@H](O)[C@H]2[C@@H]3CCC4NC(=O)CC[C@]4(C)[C@H]3CC[C@@]21C` (stereo partly drawn) [Product 2, 17β-t-butylcarbamoyl-15a-hydroxy-4-azaandrostan-3-one], for which the IC50 came to 35 nM and the “inhibiting activity on the enzyme 5α-reductase” value was “strong inhibiting activity”. For `CC(C)(C)NC(=O)[C@H]1C[C@@H](O)[C@H]2[C@@H]3CCC4NC(=O)CC[C@]4(C)[C@H]3CC[C@@]21C` (stereo partly drawn) [Product 3, 17β-t-butylcarbamoyl-15β-hydroxy-4-azaandrostan-3-one], the IC50 turned out to be 35 nM and the “inhibiting activity on the enzyme 5α-reductase” value is “strong inhibiting activity”.
